# Reference: US7040746B2, “Inkjet ink having yellow dye mixture” (Lexmark International, Inc., priority 2003, dated 2006)
# Assays:
# Format in all cases: physicochemical
# [1] = CIELAB color data and optical density of printed ink patches (Gretag-McBeth Spectolino/Spectrascan); details: dye alone in ink
# Source text: CIELAB Color System-Space: The CIELAB color system was established by the Commission Internationale de l'Eclairage (CIE) in 1976. It is color space to be used for the specification of color differences. The L* is a correlate to perceived lightness ranging from 0.0 for black to 100.0 for a diffuse white. The a* and b* dimensions correlate approximately with red-green and yellow-blue chroma perceptions. They take on both negative and positive values. Their maximum values are limited by the physical properties of materials. The color difference (ΔE*ab) between two color points. (L*[…]) and (L*2, a*2, b2), is defined by the distance between the two points and computed by ΔE*ab=[(L*2−L*1)^2+(a*2−a*1)^2+(b*2−b*1)^2]^1/2
# The cylindrical coordinate system provides predictors of lightness. L*, chroma, C*, and hue, H*. The chroma correlates the colorfulness of an area and the hue correlates the types of colors such as red, green, blue, yellow, etc. The relationship among a*, b*, C* and H* is given by C*=[a*2+b*2]^1/2 H*=tan^−1(b*/a*) a*=C* cos(H*) b*=C* sin(H*)
# (§1) The color data was collected on a Gretag-McBeth Spectolino/Spectrascan with 100% coverage patches printed on Kodak Premium Photo Paper. Permanence was evaluated by measuring the relative fade of 0.6 OD yellow block printed on Ilford Printasia Glossy Photo Paper after 504 hours of exposure to 43-kLux cool white fluorescent illumination.
# [2] = Aqueous solubility of dye
# [3] = Permanence: relative fade of 0.6 OD yellow block under fluorescent illumination; details: dye alone in ink; for permanence (relative fade): 0.6 OD block on Ilford Printasia Glossy Photo Paper, 504 hours, 43-kLux cool white fluorescent, higher = more fade
# Description: as §1
# [4] = 3% by weight, Kodak Premium Photo Paper
Molecule,H* (hue) ([1]; 3% by weight),a* ([1]; 3% by weight),b* ([1]; 3% by weight),optical density ([1]; 3% by weight),"C* (chroma) [1, 4]",aqueous solubility [2] [%],lightfastness / permanence (in words) ([3]; 3% by weight),permanence (relative fade) ([3]; 3% by weight) [%],C* (chroma) ([1]; 3.4% by weight),H* (hue) ([1]; 3.4% by weight),a* ([1]; 3.4% by weight),b* ([1]; 3.4% by weight),optical density ([1]; 3.4% by weight),permanence (relative fade) ([3]; 3.4% by weight) [%]
"O=C([O-])C1=NN(c2ccc(S(=O)(=O)[O-])cc2)C(=O)C1N=Nc1ccc(S(=O)(=O)[O-])cc1.[Na+].[Na+].[Na+] (centres unmarked) [Acid Yellow 23, reference compound]",89.5,1.0,110.3,1.5,110.3,40,extremely poor lightfastness,86.6,,,,,,
Acid Yellow 17,96.3,−10.8,92.6,1.3,93.2,19,much better permanence,27.9,,,,,,
Direct Yellow 132,,,,,,13,,,106.7,86.9,5.9,106.3,1.7,18
